Values after ≈ are worked out from the molar mass of the structure shown. Like-named read-outs stand apart in the source and are kept apart here.
What was measured:
Assay type in all cases: in vivo
[1] = tested on: tobacco cutworm (Spodoptera litura); assay: Test Example 2: insecticidal test on tobacco cutworm fourth larvae, artificial diet; conditions: 144 h
Procedure: (§1) Anyone of Compound Nos. 1 to 12 (10 parts), polyoxyethylene styrylphenyl ether (14 parts), calcium dodecylbenzenesulfonate (6 parts), xylene (35 parts) and dimethylformamide (35 parts) are mixed well to make an emulsifiable concentrate preparation.
An emulsifiable concentrate preparation formulated as in Formulation Example 2 was diluted with water to make a designed dilution of the test compound. An artificial diet (13 g) for tobacco cutworm (Spodoptera litura) was impregnated with said dilution (2 ml) and placed into a polyethylene-made cup of 11 cm in diameter. Fourth larvae (10 insects) of tobacco cutworm were released therein. Six days thereafter, observation was made to determine the number of death, and the LC50 value (i.e. lethal concentration to 50% death) was calculated therefrom (two replications).

[2] = tested on: common mosquito (Culex pipiens pallens); assay: Test Example 1: emergence of common mosquito from last instar larvae; conditions: 3.5 ppm in water; twenty last instar larvae; feeding up to emergence; two replications
Procedure: as §1
An emulsifiable concentrate preparation formulated as in Formulation Example 2 was diluted with water to make a dilution containing the test compound in a concentration of 3.5 ppm. The dilution (100 ml) was charged in a plastic cup of 180 ml volume, and twenty last instar larvae of common mosquito (Culex pipiens pallens) were released therein. Feeding was continued up to emergence, and the rate of emergence was observed (two replications).

[3] = tested on: housefly (Musca domestica); assay: Test Example 4: emergence of housefly from nits reared on treated artificial culture; conditions: 10 ppm dilution (10,000 fold, 28 ml) in artificial culture; fifty nits, cultivated until pupation
Procedure: as §1
Powdered animal feed (2 g) was thoroughly mixed with bran (14 g). An emulsifiable concentrate preparation formulated as in Formulation Example 2 was diluted with water to make a 10,000 fold dilution (corresponding to 10 ppm; 28 ml) and added to the above mixture. The resultant mixture was stirred well to make an artificial culture for housefly. Fifty nits of housefly (Musca domestica) were cultivated therein until their pupation. The obtained pupae were placed into a plastic cup, and the rate of emergence was observed.

[4] = tested on: rice stem borer (Chilo suppressalis); assay: Test Example 3: insecticidal test on rice stem borer ten-day old larvae, artificial diet; conditions: 192 h, eight days, two replications
Procedure: as §1
An emulsifiable concentrate preparation formulated as in Formulation Example 2 was diluted with water to make a designed dilution of the test compound. Five grams of artificial diet placed into a polyethylene-made cup of 5.5 cm in diameter was impregnated with said dilution (1 ml). Ten-day old larvae (10 insects) of rice stem borer (Chilo suppressalis) were released therein. Eight days thereafter, observation was made to determine the number of death, and the LC50 value was calculated therefrom (two replications).

[5] = lethal concentration to 50% death, fourth larvae, artificial diet, six days, two replications, read-out: LC50

SMILES	LC50 [1]	LC50 [1, 5]	Rate of emergence [2]	Rate of emergence [3]	LC50 [4]
O=C(NC(=O)c1c(F)cccc1F)Nc1ccc(Cl)cc1 [A, Diflubenzuron, reference compound]	4.4 µg/mL (≈ 14.2 µM)				
CNC(=O)ON=C(C)SC [B, Methomyl, reference compound]	8 µg/mL (≈ 49.3 µM)				
O=C(NC(=O)c1c(F)cccc1F)Nc1ccc(Oc2cc(Cl)cc(Cl)c2)cc1 [C, 3-(2,6-difluorobenzoyl)-1-[4-(3,5-dichlorophenoxy)phenyl]urea, reference compound]		6.5 µg/mL (≈ 14.9 µM)			
Cc1cc(NC(=O)NC(=O)c2c(F)cccc2F)cc(C)c1Oc1cc(F)cc(F)c1 [Compound 1, N-2,6-difluorobenzoyl-N'-4-(3,5-difluorophenoxy)-3,5-dimethylphenylurea]		0.5 µg/mL (≈ 1.16 µM)	0%	2%	
O=C(NC(=O)c1c(F)cccc1F)Nc1cc(Cl)c(Oc2cc(F)cc(F)c2)c(Cl)c1 [Compound 2, N-2,6-difluorobenzoyl-N'-4-(3,5-difluorophenoxy)-3,5-dichlorophenylurea]		2.5 µg/mL (≈ 5.28 µM)	0%	0%	12 µg/mL (≈ 25.4 µM)
O=C(NC(=O)c1c(F)cccc1F)Nc1cc(Cl)c(Oc2c(F)c(F)c(F)c(F)c2F)c(Cl)c1 [Compound 3]		2.3 µg/mL (≈ 4.36 µM)	0%	0%	
Cc1cc(NC(=O)NC(=O)c2ccccc2Cl)cc(C)c1Oc1cc(F)cc(F)c1 [Compound 4]		1.5 µg/mL (≈ 3.48 µM)	0%		10 µg/mL (≈ 23.2 µM)
O=C(NC(=O)c1ccccc1Cl)Nc1cc(Cl)c(Oc2cc(F)cc(F)c2)c(Cl)c1 [Compound 5]			0%		
O=C(NC(=O)c1ccccc1Cl)Nc1cc(Cl)c(Oc2c(F)c(F)c(F)c(F)c2F)c(Cl)c1 [Compound 6]		2.7 µg/mL (≈ 5.14 µM)	0%	0%	
O=C(NC(=O)c1ccccc1Cl)Nc1cc(Cl)c(Oc2c(Cl)c(Cl)c(Cl)c(Cl)c2Cl)c(Cl)c1 [Compound 7]			0%		
O=C(NC(=O)c1c(F)cccc1F)Nc1cc(Cl)c(Oc2c(Cl)c(Cl)c(Cl)c(Cl)c2Cl)c(Cl)c1 [Compound 8]			0%		15 µg/mL (≈ 24.6 µM)
Cc1cc(NC(=O)NC(=O)c2c(F)cccc2F)cc(C)c1Oc1c(F)c(F)c(F)c(F)c1F [Compound 9]		0.64 µg/mL (≈ 1.32 µM)	0%		
Cc1cc(NC(=O)NC(=O)c2ccccc2Cl)cc(C)c1Oc1c(F)c(F)c(F)c(F)c1F [Compound 10]		1.2 µg/mL (≈ 2.48 µM)	0%		
Cc1cc(NC(=O)NC(=O)c2c(F)cccc2Cl)cc(C)c1Oc1cc(F)cc(F)c1 [Compound 11]		1.6 µg/mL (≈ 3.56 µM)	0%		
Cc1cc(NC(=O)NC(=O)c2c(F)cccc2Cl)cc(C)c1Oc1c(F)c(F)c(F)c(F)c1F [Compound 12]			0%		

From patent US4596890A, “Benzoylureas, and their production and use” (priority 1983, dated 1986)
